Where two headings read alike, the source gives them in different places.
Experiments:
Test in all cases: Test of antibacterial activity in vitro (bacteria-inhibition zone)
Format in all cases: cell-based
Saccharomyces cerevisiae = conditions: for zone of inhibition at 5.6 µg/mL: Saccharomyces cerevisiae, 5.6 μg/ml after conversion; for diameter of the bacteria-inhibition zone, Saccharomyces cerevisiae 0 h / diameter of the bacteria-inhibition zone, Saccharomyces cerevisiae 6 h / diameter of the bacteria-inhibition zone, Saccharomyces cerevisiae 24 h / diameter of the bacteria-inhibition zone, Saccharomyces cerevisiae 48 h: 2.8 μg/ml after conversion
Text: (§1) Test of Antibacterial Activity In Vitro
(§2) Experiment drugs: the polyene diester compounds prepared by examples 1-12
(§3) Control drugs: amphotericin B (standard product) • mycostatin (standard product) • natamycin (standard product)
2.2 Preparation of Saccharomyces cerevisiae suspension: PHARMACOPOEIA OF THE PEOPLES REPUBLIC OF CHINA, second part, 2005 edition, appendix p 80, p 83.
(§4) Taking appropriate amount of the above mentioned amphotericin B, mycostatin, natamycin and the polyene diester compounds prepared by examples 1-8 and 10-12, dissolving in a little dimethyl sulfoxide respectively, using pH7 phosphate buffer to dilute into solution which is equivalent to contain amphotericin B, mycostatin, natamycin 280 Units per milliliter, taking 1 ml and using pH7 phosphate buffer to quantitatively dilute into solution which is equivalent to contain amphotericin B 1.4 μg/ml and 2.8 μg/ml, and is equivalent to contain 5.6 μg/ml of mycostatin and natamycin.
(§5) In addition, preparing the solution according to the same method, adding 40% defibered sheep serum, using pH7 phosphate buffer to quantitatively dilute into unit solution which is equivalent to contain amphotericin B 1.4 μg/ml and 2.8 μg/ml, and is equivalent to contain 5.6 μg/ml of mycostatin and natamycin. Testing according to PHARMACOPOEIA OF THE PEOPLES REPUBLIC OF CHINA, second part, 2005 edition, appendix XIA The Antibiotics Microorganism Test.
(§6) Medium: Improved Martin Agar Medium, PHARMACOPOEIA OF THE PEOPLES REPUBLIC OF CHINA, second part, 2005 edition, appendix p 84.
(§7) Test method: Double-plate counting method; […] bacteria bed 15 ml to replace the double layers, culture temperature: 37° C., time: 24 h; strain concentration: 1%
(§8) Medium: Modified Martin Broth Medium

Candida albicans = conditions: for zone of inhibition at 5.6 µg/mL: Candida albicans
Text: as §1, §2, §3
2.1 Preparation of Candida albicans suspension: PHARMACOPOEIA OF THE PEOPLES REPUBLIC OF CHINA, second part, 2005 edition, appendix p 81-84.
as §4, §5, §6
Test method: Double-plate counting method; […] bacteria bed 15 ml to replace the double layers, culture temperature: 37° C., time: 24 h; strain concentration: 1% […]

Candida mycoderma = conditions: for zone of inhibition at 5.6 µg/mL: 5.6 μg/ml after conversion; for diameter of the bacteria-inhibition zone, Candida mycoderma 0 h / diameter of the bacteria-inhibition zone, Candida mycoderma 6 h / diameter of the bacteria-inhibition zone, Candida mycoderma 24 h / diameter of the bacteria-inhibition zone, Candida mycoderma 48 h: 2.8 μg/ml after conversion
Text: as §1, §2, §3
2.3 Preparation of Candida mycoderrna suspension: the method is as same as preparation of Saccharomyces cerevisiae suspension
as §4, §5, §6, §7, §8

[1] = 0 h, serum added (40% defibered sheep serum)
[2] = 0 h, 2.8 μg/ml after conversion, no serum
[3] = 0 h, 2.8 μg/ml after conversion, serum added (40% defibered sheep serum)
[4] = 6 h, 2.8 μg/ml after conversion, no serum
[5] = 24 h, 2.8 μg/ml after conversion, no serum
[6] = 48 h, 2.8 μg/ml after conversion, no serum

Compound	diameter of the bacteria-inhibition zone, Saccharomyces cerevisiae 0 h (Saccharomyces cerevisiae; 0 h, no serum)	diameter of the bacteria-inhibition zone, Saccharomyces cerevisiae 0 h (Saccharomyces cerevisiae; [1])	diameter of the bacteria-inhibition zone, Saccharomyces cerevisiae 6 h (Saccharomyces cerevisiae; 6 h, no serum)	diameter of the bacteria-inhibition zone, Saccharomyces cerevisiae 24 h (Saccharomyces cerevisiae; 24 h, no serum)	diameter of the bacteria-inhibition zone, Saccharomyces cerevisiae 48 h (Saccharomyces cerevisiae; 48 h, no serum)	diameter of the bacteria-inhibition zone, Candida albicans 0 h (Candida albicans; [2])	diameter of the bacteria-inhibition zone, Candida albicans 0 h (Candida albicans; [3])	diameter of the bacteria-inhibition zone, Candida albicans 6 h (Candida albicans; [4])	diameter of the bacteria-inhibition zone, Candida albicans 24 h (Candida albicans; [5])	diameter of the bacteria-inhibition zone, Candida albicans 48 h (Candida albicans; [6])	diameter of the bacteria-inhibition zone, Candida mycoderma 0 h (Candida mycoderma; 0 h, no serum)	diameter of the bacteria-inhibition zone, Candida mycoderma 0 h (Candida mycoderma; [1])	diameter of the bacteria-inhibition zone, Candida mycoderma 6 h (Candida mycoderma; 6 h, no serum)	diameter of the bacteria-inhibition zone, Candida mycoderma 24 h (Candida mycoderma; 24 h, no serum)	diameter of the bacteria-inhibition zone, Candida mycoderma 48 h (Candida mycoderma; 48 h, no serum)	other results
C[C@@H]1C/C=C/C=C/C=C/C=C/[C@H](O[C@@H]2O[C@H](C)[C@@H](O)[C@H](N)[C@@H]2O)C[C@@H]2O[C@](O)(C[C@@H](O)C[C@H]3O[C@@H]3/C=C/C(=O)O1)C[C@H](O)[C@H]2C(=O)O [Natamycin, natamycin, reference compound]	–	–	–	–	–	–	–	–	–	–	–	–	–	–	–	zone of inhibition at 5.6 µg/mL (Saccharomyces cerevisiae; 0 h, no serum, read-out: diameter of the bacteria-inhibition zone, Saccharomyces cerevisiae 0 h): 14 to 16 mm; zone of inhibition at 5.6 µg/mL (Saccharomyces cerevisiae; 0 h, serum added (40% defibered sheep serum), read-out: diameter of the bacteria-inhibition zone, Saccharomyces cerevisiae 0 h): 12 to 14 mm; zone of inhibition at 5.6 µg/mL (Saccharomyces cerevisiae; 6 h, no serum, read-out: diameter of the bacteria-inhibition zone, Saccharomyces cerevisiae 6 h): 14 to 16 mm; zone of inhibition at 5.6 µg/mL (Saccharomyces cerevisiae; 6 h, serum added (40% defibered sheep serum), read-out: diameter of the bacteria-inhibition zone, Saccharomyces cerevisiae 6 h): 12 to 14 mm; zone of inhibition at 5.6 µg/mL (Saccharomyces cerevisiae; 24 h, no serum, read-out: diameter of the bacteria-inhibition zone, Saccharomyces cerevisiae 24 h): 14 to 16 mm; zone of inhibition at 5.6 µg/mL (Saccharomyces cerevisiae; 24 h, serum added (40% defibered sheep serum), read-out: diameter of the bacteria-inhibition zone, Saccharomyces cerevisiae 24 h): 12 to 14 mm; zone of inhibition at 5.6 µg/mL (Saccharomyces cerevisiae; 48 h, no serum, read-out: diameter of the bacteria-inhibition zone, Saccharomyces cerevisiae 48 h): 14 to 16 mm; zone of inhibition at 5.6 µg/mL (Saccharomyces cerevisiae; 48 h, serum added (40% defibered sheep serum), read-out: diameter of the bacteria-inhibition zone, Saccharomyces cerevisiae 48 h): 12 to 14 mm; diameter of the bacteria-inhibition zone, Candida albicans 0 h (Candida albicans; 0 h, 5.6 μg/ml after conversion, serum added (40% defibered sheep serum)): ++ (9-12 mm: ++); diameter of the bacteria-inhibition zone, Candida albicans 6 h (Candida albicans; 6 h, 5.6 μg/ml after conversion, serum added (40% defibered sheep serum)): ++ (9-12 mm: ++); diameter of the bacteria-inhibition zone, Candida albicans 24 h (Candida albicans; 24 h, 5.6 μg/ml after conversion, serum added (40% defibered sheep serum)): ++ (9-12 mm: ++); diameter of the bacteria-inhibition zone, Candida albicans 48 h (Candida albicans; 48 h, 5.6 μg/ml after conversion, serum added (40% defibered sheep serum)): ++ (9-12 mm: ++); zone of inhibition at 5.6 µg/mL (Candida albicans; 0 h, 5.6 μg/ml after conversion, no serum, read-out: diameter of the bacteria-inhibition zone, Candida albicans 0 h): 9 to 12 mm; zone of inhibition at 5.6 µg/mL (Candida albicans; 6 h, 5.6 μg/ml after conversion, no serum, read-out: diameter of the bacteria-inhibition zone, Candida albicans 6 h): 9 to 12 mm; zone of inhibition at 5.6 µg/mL (Candida albicans; 24 h, 5.6 μg/ml after conversion, no serum, read-out: diameter of the bacteria-inhibition zone, Candida albicans 24 h): 9 to 12 mm; zone of inhibition at 5.6 µg/mL (Candida albicans; 48 h, 5.6 μg/ml after conversion, no serum, read-out: diameter of the bacteria-inhibition zone, Candida albicans 48 h): 9 to 12 mm; zone of inhibition at 5.6 µg/mL (Candida mycoderma; 0 h, no serum, read-out: diameter of the bacteria-inhibition zone, Candida mycoderma 0 h): 12 to 14 mm; zone of inhibition at 5.6 µg/mL (Candida mycoderma; 6 h, no serum, read-out: diameter of the bacteria-inhibition zone, Candida mycoderma 6 h): 12 to 14 mm; zone of inhibition at 5.6 µg/mL (Candida mycoderma; 24 h, no serum, read-out: diameter of the bacteria-inhibition zone, Candida mycoderma 24 h): 12 to 14 mm; zone of inhibition at 5.6 µg/mL (Candida mycoderma; 48 h, no serum, read-out: diameter of the bacteria-inhibition zone, Candida mycoderma 48 h): 12 to 14 mm
CC(OC(=O)OC1CCCCC1)OC(=O)C1C(O)CC2(O)CC(O)CC(O)C(O)CCC(O)CC(O)CC(=O)OC(C)C(C)C(O)C(C)C=CC=CC=CC=CC=CC=CC=CC(OC3OC(C)C(O)C(N)C3O)CC1O2 (stereo not drawn) [amphotericin B cyclohexyloxycarbonyloxyethyl ester]	++ (9-12 mm: ++)	++ (9-12 mm: ++)	++ (9-12 mm: ++)	++ (9-12 mm: ++)	++ (9-12 mm: ++)	+ (7-9 mm: +)	+ (7-9 mm: +)	+ (7-9 mm: +)	+ (7-9 mm: +)	+ (7-9 mm: +)	++ (9-12 mm: ++)	++ (9-12 mm: ++)	++ (9-12 mm: ++)	++ (9-12 mm: ++)	++ (9-12 mm: ++)	diameter of the bacteria-inhibition zone, Candida albicans 6 h (Candida albicans; 6 h, 2.8 μg/ml after conversion, serum added (40% defibered sheep serum)): ++ (9-12 mm: ++)
CCOC(=O)OC(C)OC(=O)[C@H]1[C@@H]2C[C@@H](OC3OC(C)C(O)C(N)C3O)/C=C/C=C/C=C/C=C/C=C/C=C/C=C/[C@H](C)[C@@H](O)[C@@H](C)[C@H](C)OC(=O)C[C@H](O)C[C@H](O)CC[C@@H](O)[C@H](O)C[C@H](O)C[C@](O)(C[C@@H]1O)O2 (stereo partly drawn) [amphotericin B ethoxycarbonyloxyethyl ester]	++ (9-12 mm: ++)	++ (9-12 mm: ++)	++ (9-12 mm: ++)	++ (9-12 mm: ++)	++ (9-12 mm: ++)	–	–	–	–	–	+ (7-9 mm: +)	+ (7-9 mm: +)	+ (7-9 mm: +)	+ (7-9 mm: +)	+ (7-9 mm: +)	diameter of the bacteria-inhibition zone, Candida mycoderma 6 h (Candida mycoderma; 6 h, serum added (40% defibered sheep serum)): ++ (9-12 mm: ++)
CC(C)OC(=O)OC(C)OC(=O)C1C(O)CC2(O)CC(O)CC(O)C(O)CCC(O)CC(O)CC(=O)OC(C)C(C)C(O)C(C)C=CC=CC=CC=CC=CC=CC=CC(OC3OC(C)C(O)C(N)C3O)CC1O2 (stereo not drawn) [amphotericin B isopropoxycarbonyloxyethyl ester]	+ (7-9 mm: +)	++ (9-12 mm: ++)	+ (7-9 mm: +)	+ (7-9 mm: +)	+ (7-9 mm: +)	++ (9-12 mm: ++)	++ (9-12 mm: ++)	++ (9-12 mm: ++)	++ (9-12 mm: ++)	++ (9-12 mm: ++)	++ (9-12 mm: ++)	++ (9-12 mm: ++)	++ (9-12 mm: ++)	++ (9-12 mm: ++)	++ (9-12 mm: ++)	–
Cc1oc(=O)oc1COC(=O)C1C(O)CC2(O)CC(O)CC(O)C(O)CCC(O)CC(O)CC(=O)OC(C)C(C)C(O)C(C)C=CC=CC=CC=CC=CC=CC=CC(OC3OC(C)C(O)C(N)C3O)CC1O2 (stereo not drawn) [amphotericin B-5-methyl-1,3-dioxol-2-one-4-methyl ester]	++ (9-12 mm: ++)	++ (9-12 mm: ++)	++ (9-12 mm: ++)	++ (9-12 mm: ++)	++ (9-12 mm: ++)	++ (9-12 mm: ++)	++ (9-12 mm: ++)	++ (9-12 mm: ++)	++ (9-12 mm: ++)	++ (9-12 mm: ++)	++ (9-12 mm: ++)	++ (9-12 mm: ++)	++ (9-12 mm: ++)	++ (9-12 mm: ++)	++ (9-12 mm: ++)	–
amphotericin B ethyl acetate	+ (7-9 mm: +)	++ (9-12 mm: ++)	+ (7-9 mm: +)	+ (7-9 mm: +)	+ (7-9 mm: +)	–	–	–	–	–	++ (9-12 mm: ++)	++ (9-12 mm: ++)	++ (9-12 mm: ++)	++ (9-12 mm: ++)	++ (9-12 mm: ++)	–

From patent US8217013B2, “Polyene diester antibiotics” (priority 2007, dated 2012)
